Data reported in patent US20080312246A1, “Substituted Piperazines as Metabotropic Glutamate Receptor Antagonists” (AstraZeneca AB, priority 2005, published 2008).

Biological target: T1, human mGluR5d (Homo sapiens, UniProt P41594)
T1 construct: expressed in transfected cells; host or cells: GHEK (HEK cells expressing a glutamate transporter) for the IP3 assay
Experiment: Functional assessment of mGluR5 antagonism in cell lines expressing mGluR5d (FLIPR calcium mobilization / IP3 turnover; assay behind the values not specified)
Type: cell-based
Details: cells expressing human mGluR5d; FLIPR or IP3 assay not specified
Description: The pharmacological properties of the compounds of the invention can be analyzed using standard assays for functional activity. Examples of glutamate receptor assays are well known in the art as described in for example Aramori et al., Neuron 8:757 (1992), Tanabe et al., Neuron 8:169 (1992), Miller et al., J. Neuroscience 15: 6103 (1995), Balazs, et al., J. Neurochemistry 69:151 (1997). The methodology described in these publications is incorporated herein by reference. Conveniently, the compounds of the invention can be studied by means of an assay that measures the mobilization of intracellular calcium, [Ca^2+]i in cells expressing mGluR5.
Intracellular calcium mobilization was measured by detecting changes in fluorescence of cells loaded with the fluorescent indicator fluo-3. Fluorescent signals were measured using the FLIPR system (Molecular Devices). […]
FLIPR experiments were done using a laser setting of 0.800 W and a 0.4 second CCD camera shutter speed. […] After each addition of the compound, the fluorescence signal was sampled 50 times at 1 second intervals followed by 3 samples at 5 second intervals. Responses were measured as the peak height of the response within the sample period. […]
We have validated a secondary functional assay for mGluR5d based on Inositol Phosphate (IP3) turnover. IP3 accumulation is measured as an index of receptor mediated phospholipase C turnover. […]

T1 sequence (P41594 21-942 isoform P41594-3 limits assumed): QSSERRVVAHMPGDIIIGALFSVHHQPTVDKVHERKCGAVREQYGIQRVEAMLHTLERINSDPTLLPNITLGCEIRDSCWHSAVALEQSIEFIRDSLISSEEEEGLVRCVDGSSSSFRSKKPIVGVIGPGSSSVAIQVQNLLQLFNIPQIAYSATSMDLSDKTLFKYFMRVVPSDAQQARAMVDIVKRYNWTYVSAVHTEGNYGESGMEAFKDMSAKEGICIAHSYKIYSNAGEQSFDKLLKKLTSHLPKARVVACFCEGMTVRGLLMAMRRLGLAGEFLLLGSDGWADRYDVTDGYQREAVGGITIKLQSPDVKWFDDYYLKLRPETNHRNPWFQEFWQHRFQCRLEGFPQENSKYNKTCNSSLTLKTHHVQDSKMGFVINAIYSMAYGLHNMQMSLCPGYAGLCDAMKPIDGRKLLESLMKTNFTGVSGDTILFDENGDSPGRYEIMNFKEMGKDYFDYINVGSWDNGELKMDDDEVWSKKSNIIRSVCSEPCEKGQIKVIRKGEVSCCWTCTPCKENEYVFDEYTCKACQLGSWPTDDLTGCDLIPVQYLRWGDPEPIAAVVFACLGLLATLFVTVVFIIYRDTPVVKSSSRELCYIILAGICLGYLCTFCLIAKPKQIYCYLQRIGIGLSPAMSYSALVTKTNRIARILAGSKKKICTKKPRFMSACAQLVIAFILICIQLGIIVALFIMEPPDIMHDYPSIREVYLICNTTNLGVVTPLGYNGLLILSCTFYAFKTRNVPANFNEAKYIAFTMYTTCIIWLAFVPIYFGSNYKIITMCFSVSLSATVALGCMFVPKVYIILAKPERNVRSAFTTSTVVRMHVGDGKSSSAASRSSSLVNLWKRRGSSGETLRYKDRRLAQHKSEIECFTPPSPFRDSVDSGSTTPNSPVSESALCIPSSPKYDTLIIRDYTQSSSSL

Row | IC50 | SMILES
1 | 159 nM | CC(c1cn(-c2cccc(Cl)c2)nn1)N1CCN(c2ccc(C#N)cn2)CC1 (centres unmarked) [Example 15.17, 6-(4-{1-[1-(3-chlorophenyl)-1H-1,2,3-triazol-4-yl]ethyl}piperazin-1-yl)nicotinonitrile]
2 | 1080 nM | CC(c1cn(-c2cccc(Cl)c2)nn1)N1CCN(c2ncccc2C#N)CC1 (centres unmarked) [Example 15.16, 2-(4-{1-[1-(3-chlorophenyl)-1H-1,2,3-triazol-4-yl]ethyl}piperazin-1-yl)nicotinonitrile]
